# Patent US7157442B2, “Antibacterial compound” (Sankyo Company, Limited, priority 1999, dated 2007)
# What was measured:
# [1] = test system: Mycobacterium avium Strain NIHJ 1605; experiment: In vitro antibacterial activity (1): minimum inhibitory concentration, broth dilution; format: cell-based; settings: NIHJ1605, 144 h; Mycobacterium avium NIHJ 1605; Middlebrook 7H9 broth, aerobic culture at 37° C. for 6 days
# M. tuberculosis Kato = experiment: In vitro antibacterial activity (2): MIC by broth dilution method; format: cell-based; settings: Mycobacterium tuberculosis; Middlebrook 7H9 broth, 35° C. for 10–21 days; read-out: MICs against Mycobacterium tuberculosis, M. tuberculosis Kato
# Description: The minimum inhibitory concentration (MICs) of the test compounds against Mycobacterium tuberculosis was determined by the broth dilution method. After the solution of a test compound in dimethyl sulfoxide (DMSO) or distilled water was diluted with 50% aqueous acetone or distilled water, each two-fold dilution of the solution was carried out with Middlebrook 7H9 broth containing 0.05% Tween 80, 0.2% dextrose and Middlebrook ADC enrichment. […] The microorganisms cultivated on Ogawa medium were suspended uniformly in Middlebrook 7H9 broth containing 0.05% Tween 80, 0.2% dextrose and Middlebrook ADC enrichment. The microorganism solution was adjusted to about 1×10^7 CFU/mL using a spectrophotometer. The resulting microorganism solution was further diluted with Middlebrook 7H9 broth containing 0.05% Tween 80, 0.2% dextrose and Middlebrook ADC enrichment (final viable cell count: about 1×10^5 CFU/mL). After mixing the diluted microorganism solution with the diluted test compound solution in the test tube, cultivation was performed at 35° C. for 10–21 days. When significant growth was found in the control test tube with no test compound, the MIC was determined as the minimum concentration of the compound at which no colony was recognized macroscopically in the test tube.
SMILES,MIC [1] [µg/mL],MIC (M. tuberculosis Kato) [µg/mL]
"CO[C@H]1[C@@H](O)[C@H](n2ccc(=O)[nH]c2=O)O[C@@H]1[C@@H](O[C@H]1OC(C(=O)N[C@H]2CCCCNC2=O)=C[C@H](O)[C@@H]1O)C(N)=O [Capuramycin, capuramycin, reference compound]",8,
CO[C@H]1[C@@H](O)[C@H](n2ccc(=O)[nH]c2=O)O[C@@H]1[C@@H](O[C@H]1OC(C(=O)Nc2ccc(F)c(F)c2)=C[C@H](O)[C@@H]1O)C(N)=O [Exemplification Compound No. 3712],2,1
